Experimental data as given in patent US20170190671A1, “BIS(ARYL)CATECHOL DERIVATIVES AS HERBICIDES” (E I DU PONT DE NEMOURS AND COMPANY, priority 2014, published 2017).

Experiments:
Conditions in all cases: scale 0 to 100
[1] = system: galium (catchweed bedstraw, Galium aparine); experiment: Test D postemergence; assay type: in vivo
Summary of the method: (§1)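 Seeds were sown in silt loam for preemergence treatment, or in peat/vermiculite medium for postemergence sprays at 2–18 cm (1- to 4-leaf stage). Test chemicals were in a non-phytotoxic solvent with surfactant. After 14–21 days in a controlled environment, plants were visually rated against controls on a 0–100 scale (0 no effect, 100 complete control).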

[2] = system: wild radish (Raphanus raphanistrum); experiment: Test D postemergence; assay type: in vivo
Summary of the method: as §1

[3] = system: speedwell (bird's-eye speedwell, Veronica persica); experiment: Test D postemergence; assay type: in vivo
Summary of the method: as §1

[4] = system: windgrass (Apera spica-venti); experiment: Test D postemergence; assay type: in vivo
Summary of the method: as §1

[5] = system: spring barley (Hordeum vulgare); experiment: Test D postemergence; assay type: in vivo
Summary of the method: as §1

[6] = system: Italian ryegrass (Lolium multiflorum); experiment: Test D postemergence; assay type: in vivo
Summary of the method: as §1

wild oat (Avenafatua) [7] = experiment: Test D preemergence; assay type: in vivo, Avena fatua
Excerpt: (§2) Seeds of plant species selected from bluegrass (annual bluegrass, Poa annua), blackgrass (Alopecurus myosuroides), canarygrass (Phalaris minor), chickweed (common chickweed, Stellaria media), cutleaf geranium (Geranium dissectum), galium (catchweed bedstraw, Galium aparine), downy bromegrass (Bromus tectorum), field poppy (Papaver rhoeas), field violet (Viola arvensis), green foxtail (Setaria viridis), deadnettle (henbit deadnettle, Lamium amplexicaule), Italian ryegrass (Lolium multiflorum), kochia (Kochia scoparia), lambsquarters (Chenopodium album), oilseed rape (Brassica napus), pigweed (Amaranthus retroflexus), chamomile (scentless chamomile, Matricaria inodora), Russian thistle (Salsola kali), speedwell (bird's-eye speedwell, Veronica persica), spring barley (Hordeum vulgare), spring wheat (Triticum aestivum), wild buckwheat (Polygonum convolvulus), wild mustard (Sinapis arvensis), wild oat (Avenafatua), wild radish (Raphanus raphanistrum), windgrass (Apera spica-venti), winter barley (Hordeum vulgare), and winter wheat (Triticum aestivum) were planted into a silt loam soil and treated preemergence with test chemicals formulated in a non-phytotoxic solvent mixture which included a surfactant.
(§3) At the same time, these species were planted in pots containing Redi-Earth® planting medium (Scotts Company, 14111 Scottslawn Road, Marysville, Ohio 43041) comprising spaghnum peat moss, vermiculite, wetting agent and starter nutrients and treated with postemergence applications of the test chemicals formulated in the same manner. Plants ranged in height from 2 to 18 cm (1- to 4-leaf stage). Treated plants and controls were maintained in a controlled growth environment for 14 to 21 days after which time all species were compared to controls and visually evaluated. Plant response ratings, summarized in Table D, are based on a scale of 0 to 100 where 0 is no effect and 100 is complete control. A dash (-) response means no test result.

[8] = system: galium (catchweed bedstraw, Galium aparine); experiment: Test D preemergence; assay type: in vivo
Excerpt: as §2, §3

[9] = system: spring wheat (Triticum aestivum); experiment: Test D preemergence; assay type: in vivo
Excerpt: as §2, §3

[10] = system: winter barley (Hordeum vulgare); experiment: Test D preemergence; assay type: in vivo
Excerpt: as §2, §3

[11] = system: wild radish (Raphanus raphanistrum); experiment: Test D preemergence; assay type: in vivo
Excerpt: as §2, §3

[12] = system: speedwell (bird's-eye speedwell, Veronica persica); experiment: Test D preemergence; assay type: in vivo
Excerpt: as §2, §3

[13] = system: Russian thistle (Salsola kali); experiment: Test D preemergence; assay type: in vivo
Excerpt: as §2, §3

[14] = system: windgrass (Apera spica-venti); experiment: Test D preemergence; assay type: in vivo
Excerpt: as §2, §3

[15] = system: field violet (Viola arvensis); experiment: Test D preemergence; assay type: in vivo
Excerpt: as §2, §3

[16] = system: Italian ryegrass (Lolium multiflorum); experiment: Test D preemergence; assay type: in vivo
Excerpt: as §2, §3

[17] = system: green foxtail (Setaria viridis); experiment: Test D preemergence; assay type: in vivo
Excerpt: as §2, §3

[18] = system: wild mustard (Sinapis arvensis); experiment: Test D preemergence; assay type: in vivo
Excerpt: as §2, §3

[19] = system: blackgrass (Alopecurus myosuroides); experiment: Test D preemergence; assay type: in vivo
Excerpt: as §2, §3

[20] = system: cutleaf geranium (Geranium dissectum); experiment: Test D preemergence; assay type: in vivo
Excerpt: as §2, §3

wild oat (Avenafatua) [21] = experiment: Test D postemergence; assay type: in vivo, Avena fatua
Excerpt: as §2, §3

Fc1cnc(Oc2c(F)cccc2Oc2ncc(Cl)cn2)nc1 [Compound 23]
Plant response rating, Galium ([1]; 16 g ai/ha): 65 | Plant response rating, Galium ([1]; 31 g ai/ha): 70 | Plant response rating, Galium ([1]; 62 g ai/ha): 85 | Plant response rating, Galium ([1]; 125 g ai/ha): 85 | Plant response rating, Radish, Wild ([2]; 16 g ai/ha): 25 | Plant response rating, Radish, Wild ([2]; 31 g ai/ha): 80 | Plant response rating, Radish, Wild ([2]; 62 g ai/ha): 80 | Plant response rating, Radish, Wild ([2]; 125 g ai/ha): 85 | Plant response rating, Speedwell ([3]; 16 g ai/ha): 40 | Plant response rating, Speedwell ([3]; 31 g ai/ha): 75 | Plant response rating, Speedwell ([3]; 62 g ai/ha): 100 | Plant response rating, Speedwell ([3]; 125 g ai/ha): 100 | Plant response rating, Windgrass ([4]; 16 g ai/ha): 10 | Plant response rating, Windgrass ([4]; 31 g ai/ha): 10 | Plant response rating, Windgrass ([4]; 62 g ai/ha): 15 | Plant response rating, Windgrass ([4]; 125 g ai/ha): 20 | Plant response rating, Barley, Spring ([5]; 16 g ai/ha): 0 | Plant response rating, Barley, Spring ([5]; 31 g ai/ha): 5 | Plant response rating, Barley, Spring ([5]; 62 g ai/ha): 5 | Plant response rating, Barley, Spring ([5]; 125 g ai/ha): 10 | Plant response rating, Ryegrass, Italian ([6]; 16 g ai/ha): 0 | Plant response rating, Ryegrass, Italian ([6]; 31 g ai/ha): 5 | Plant response rating, Ryegrass, Italian ([6]; 62 g ai/ha): 10 | Plant response rating, Ryegrass, Italian ([6]; 125 g ai/ha): 25 | Plant response rating, Oat, Wild (wild oat (Avenafatua) [7]; 16 g ai/ha): 5 | Plant response rating, Oat, Wild (wild oat (Avenafatua) [7]; 31 g ai/ha): 15 | Plant response rating, Oat, Wild (wild oat (Avenafatua) [7]; 62 g ai/ha): 70 | Plant response rating, Oat, Wild (wild oat (Avenafatua) [7]; 125 g ai/ha): 98 | Plant response rating, Galium ([8]; 16 g ai/ha): 70 | Plant response rating, Galium ([8]; 31 g ai/ha): 75 | Plant response rating, Galium ([8]; 62 g ai/ha): 95 | Plant response rating, Galium ([8]; 125 g ai/ha): 100 | Plant response rating, Wheat, Spring ([9]; 16 g ai/ha): 0 | Plant response rating, Wheat, Spring ([9]; 31 g ai/ha): 5 | Plant response rating, Wheat, Spring ([9]; 62 g ai/ha): 30 | Plant response rating, Wheat, Spring ([9]; 125 g ai/ha): 45 | Plant response rating, Barley, Winter ([10]; 16 g ai/ha): 0 | Plant response rating, Barley, Winter ([10]; 31 g ai/ha): 0 | Plant response rating, Barley, Winter ([10]; 62 g ai/ha): 30 | Plant response rating, Barley, Winter ([10]; 125 g ai/ha): 70 | Plant response rating, Radish, Wild ([11]; 16 g ai/ha): 25 | Plant response rating, Radish, Wild ([11]; 31 g ai/ha): 70 | Plant response rating, Radish, Wild ([11]; 62 g ai/ha): 90 | Plant response rating, Radish, Wild ([11]; 125 g ai/ha): 100 | Plant response rating, Speedwell ([12]; 16 g ai/ha): 100 | Plant response rating, Speedwell ([12]; 31 g ai/ha): 100 | Plant response rating, Speedwell ([12]; 62 g ai/ha): 100 | Plant response rating, Speedwell ([12]; 125 g ai/ha): 100 | Plant response rating, Russian Thistle ([13]; 16 g ai/ha): 0 | Plant response rating, Russian Thistle ([13]; 31 g ai/ha): 0 | Plant response rating, Russian Thistle ([13]; 62 g ai/ha): 5 | Plant response rating, Russian Thistle ([13]; 125 g ai/ha): 5 | Plant response rating, Windgrass ([14]; 16 g ai/ha): 20 | Plant response rating, Windgrass ([14]; 31 g ai/ha): 75 | Plant response rating, Windgrass ([14]; 62 g ai/ha): 98 | Plant response rating, Windgrass ([14]; 125 g ai/ha): 100 | Plant response rating, Field Violet ([15]; 16 g ai/ha): 25 | Plant response rating, Field Violet ([15]; 31 g ai/ha): 25 | Plant response rating, Field Violet ([15]; 62 g ai/ha): 95 | Plant response rating, Field Violet ([15]; 125 g ai/ha): 100 | Plant response rating, Ryegrass, Italian ([16]; 16 g ai/ha): 5 | Plant response rating, Ryegrass, Italian ([16]; 31 g ai/ha): 10 | Plant response rating, Ryegrass, Italian ([16]; 62 g ai/ha): 35 | Plant response rating, Ryegrass, Italian ([16]; 125 g ai/ha): 75 | Plant response rating, Foxtail, Green ([17]; 16 g ai/ha): 0 | Plant response rating, Foxtail, Green ([17]; 31 g ai/ha): 5 | Plant response rating, Foxtail, Green ([17]; 62 g ai/ha): 55 | Plant response rating, Foxtail, Green ([17]; 125 g ai/ha): 100 | Plant response rating, Mustard, Wild ([18]; 16 g ai/ha): 98 | Plant response rating, Mustard, Wild ([18]; 31 g ai/ha): 100 | Plant response rating, Mustard, Wild ([18]; 62 g ai/ha): 100 | Plant response rating, Mustard, Wild ([18]; 125 g ai/ha): 100 | Plant response rating, Blackgrass ([19]; 16 g ai/ha): 20 | Plant response rating, Blackgrass ([19]; 31 g ai/ha): 30 | Plant response rating, Blackgrass ([19]; 62 g ai/ha): 70 | Plant response rating, Blackgrass ([19]; 125 g ai/ha): 85 | Plant response rating, Geranium, Cutleaf ([20]; 16 g ai/ha): 25 | Plant response rating, Geranium, Cutleaf ([20]; 31 g ai/ha): 100 | Plant response rating, Geranium, Cutleaf ([20]; 62 g ai/ha): 100 | Plant response rating, Geranium, Cutleaf ([20]; 125 g ai/ha): 100 | Plant response rating, Oat, Wild (wild oat (Avenafatua) [21]; 16 g ai/ha): 15 | Plant response rating, Oat, Wild (wild oat (Avenafatua) [21]; 31 g ai/ha): 15 | Plant response rating, Oat, Wild (wild oat (Avenafatua) [21]; 62 g ai/ha): 20 | Plant response rating, Oat, Wild (wild oat (Avenafatua) [21]; 125 g ai/ha): 35
